{"source": "paper PMC10812672", "about": "“Short Antimicrobial Peptide Derived from the Venom Gland Transcriptome of Pamphobeteus verdolaga Increases Gentamicin Susceptibility of Multidrug-Resistant Klebsiella pneumoniae” (Antibiotics, 2023)", "key": {"S. aureus ATCC® 29213": {"tested_on": "S. aureus ATCC® 29213", "type": "cell-based, Staphylococcus aureus", "details": "CLSI broth microdilution, Mueller-Hinton broth, peptide 30 µM, ~6 × 10^6 CFU/mL, 24 h 37 °C, OD600; triplicate, three independent assays; NA = no activity", "method": "(§1) Activity screening was conducted using the broth microdilution method at a fixed peptide concentration of 30 µM against E. coli ATCC® 8739 and 25922, as well as S. aureus ATCC® 6538 and 29213. The bacterial density used for screening was approximately 6 × 10^6 CFU/mL [30]. Peptide activity measurements were conducted in terms of the growth inhibition percentage. No dose-response curves were generated during the screening phase as a resource optimization strategy in the initial activity evaluation. […] For S. aureus ATCC® 6538 and S. aureus ATCC® 29213, growth inhibition ranged from 0% to 140% and 0% to 98%, respectively (Table 1).\n(§2) The evaluation of the antimicrobial activity of the peptides was conducted using the CLSI’s broth microdilution method for bacterial susceptibility testing. For the screening phase, peptides were evaluated at a single 30 μM concentration, in triplicate and in three independent assays, against the E. coli ATCC® 8739, E. coli ATCC® 25922, S. aureus ATCC® 6538, or S. aureus ATCC® 29213 reference USP and CLSI strains. For the determination of MIC, MBC, or IC50, peptides or antibiotics were evaluated in concentrations between 1.56–200 µM. These evaluations were conducted in triplicate and in three independent assays, against the E. coli ATCC® 25922, S. aureus ATCC® 29213, E. faecalis ATCC® 49532, P. aeruginosa ATCC® 9027, and K. pneumoniae ATCC® BAA-1705, or the clinically isolated MDR strain. In detail, 1 mL of a glycerol stock solution of the ATCC® or clinically isolated bacterial strain was added to 9 mL of Mueller-Hinton Broth and incubated for 18 h, 180 rpm and 37 °C (Incubator 1000, Heidolph Instruments, Schwabach, Germany). After the incubation, 1 mL of the previous solution was transferred to a new recipient containing 9 mL of fresh Mueller-Hinton broth and incubated for 4 h, 180 rpm and 37 °C (Incubator 1000, Heidolph Instruments, Schwabach, Germany). During the second incubation, the peptides or the antibiotics were dissolved in PBS pH 7.20 in concentrations between 19.53–2500 µM (MC5 Micro Balance, Sartorius AG, Göttingen, Germany). An amount of 10 µL of either peptide or antibiotic was dispensed in triplicate in 96-well flat bottom culture plates, along with 10 µL of PBS (Negative activity control), BTM-P1 (Positive activity control), or 10 µL of Mueller-Hinton broth (Blank); then, 110 µL of Mueller-Hinton broth was poured in all wells. Following this, the bacteria were suspended in Mueller-Hinton broth up to a concentration of approximately 1.50 × 10^8 CFU/mL, as measured by optical density at 600 nm between 0.06 to 0.11 (0.5 McFarland standard), in a Multiskan SkyHigh spectrophotometer (ThermoFisher Scientific, Waltham, MA, USA). Amounts of 5 µL of the 1.50 × 10^8 CFU/mL suspension were added to each well (except for the blank) for a final well concentration of approximately 6 × 10^6 CFU/mL. The plate was incubated for 24 h at 37 °C (BE 500, Memmert GmbH, Büchenbach, Germany) and optical density was measured at 600 nm in a Multiskan SkyHigh spectrophotometer (ThermoFisher Scientific, Waltham, MI, USA). Following the measurement of optical density, plates were visually inspected to determine the MIC. Subsequently, 100 µL of the concentration associated to the MIC and 100 µL of the next higher concentration were added to Petri dishes containing Mueller-Hinton Agar. The dishes were then incubated for 24 h at 37 °C (BE 500, Memmert GmbH, Büchenbach, Germany). After incubation, the Petri dishes were visually inspected, and the MBC was determined in the absence of growth. IC50 values were interpolated from regressions with correlation values above 0.70. Growth inhibition percentages were calculated as follows: Growth inhibition %=1−AbsPEPTIDE or ANTIBIOTIC−Median AbsBLANK/Median AbsPBS−Median AbsBLANK×100"}, "S. aureus ATCC® 6538": {"tested_on": "S. aureus ATCC® 6538", "type": "cell-based, Staphylococcus aureus", "details": "CLSI broth microdilution, Mueller-Hinton broth, peptide 30 µM, ~6 × 10^6 CFU/mL, 24 h 37 °C, OD600; triplicate, three independent assays; NA = no activity", "method": "as §1, §2"}, "P. aeruginosa ATCC® 9027": {"tested_on": "P. aeruginosa ATCC® 9027", "type": "cell-based, Pseudomonas aeruginosa", "method": "The nine AMPs identified in the initial screening were evaluated at concentrations between 1.56–200 µM, against E. coli ATCC® 25922, S. aureus ATCC® 29213, E. faecalis ATCC® 49532, P. aeruginosa ATCC® 9027, and K. pneumoniae ATCC® BAA-1705 (Supplementary Figures S2–S6). […] Only PvAMP66 and PvAMP172 reached the MBC for S. aureus at 50 µM and 100 µM, respectively (Table 2).\nas §2"}}, "note": "Ends that are not written are not given here.", "data": [{"substance": "WKKIKKFF-NH2 [PvAMP66]", "values": [{"measurement": "S. aureus ATCC® 29213 (Inhibition %)", "setting": "S. aureus ATCC® 29213", "value": "98.25 ± 0.39", "unit": "%"}, {"measurement": "S. aureus ATCC® 6538 (Inhibition %)", "setting": "S. aureus ATCC® 6538", "value": "139.72 ± 1.90", "unit": "%"}, {"measurement": "MIC", "setting": "P. aeruginosa ATCC® 9027; 1.56–200 µM, 24 h 37 °C, visual inspection, triplicate, three independent assays", "value": 12.5, "unit": "µM"}, {"measurement": "IC50", "setting": "P. aeruginosa ATCC® 9027; growth inhibition OD600, 95% confidence interval in parentheses", "value": 12.7, "unit": "µM"}, {"measurement": "MBC", "setting": "P. aeruginosa ATCC® 9027; plating on Mueller-Hinton agar, absence of growth", "value": 12.5, "unit": "µM"}]}]}
